From PubChem BioAssay AID330 (DTP/NCI, 2004)
Where “and” joins values, the source holds several entries; their conditions need not be identical. Equal values may be shown once. Inconclusive results and toxic doses are left out.

System: P388 leukemia ip, CD2F1 mice, survival T/C
Assay: NCI In Vivo Anticancer Drug Screen. Data for tumor model P388 Leukemia (intraperitoneal) in CD2F1 (CDF1) mice
Conditions: endpoint: median survival time, higher = longer survival
Outline: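 Mice carrying the transplanted tumor received test compound or vehicle. Survival was recorded in each group, and the value is the treated-group measurement divided by that of the vehicle-treated control group.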

[1] = dose: 100.0 mg/kg/injection, schedule: Q04DX003 (ip), vehicle: saline with Tween-80
[2] = dose: 200.0 mg/kg/injection, schedule: Q04DX003 (ip), vehicle: saline with Tween-80
[3] = dose: 60.0 mg/kg/injection, schedule: Q01DX005 (ip), vehicle: saline with Tween-80
[4] = dose: 120.0 mg/kg/injection, schedule: Q01DX005 (ip), vehicle: saline with Tween-80
[5] = dose: 240.0 mg/kg/injection, schedule: Q01DX005 (ip), vehicle: saline with Tween-80
[6] = dose: 100.0 mg/kg/injection, schedule: Q01DX001 (ip), vehicle: Klucel (hydroxypropylcellulose) (HPC)
[7] = dose: 200.0 mg/kg/injection, schedule: Q01DX001 (ip), vehicle: Klucel (hydroxypropylcellulose) (HPC)
[8] = dose: 400.0 mg/kg/injection, schedule: Q01DX001 (ip), vehicle: Klucel (hydroxypropylcellulose) (HPC)
[9] = dose: 50.0 mg/kg/injection, schedule: Q01DX005 (ip), vehicle: Klucel (hydroxypropylcellulose) (HPC)
[10] = dose: 100.0 mg/kg/injection, schedule: Q01DX005 (ip), vehicle: Klucel (hydroxypropylcellulose) (HPC)
[11] = dose: 200.0 mg/kg/injection, schedule: Q01DX005 (ip), vehicle: Klucel (hydroxypropylcellulose) (HPC)
[12] = dose: 100.0 mg/kg/injection, schedule: Q04DX002 (ip), vehicle: Klucel (hydroxypropylcellulose) (HPC)
[13] = dose: 200.0 mg/kg/injection, schedule: Q04DX002 (ip), vehicle: Klucel (hydroxypropylcellulose) (HPC)
[14] = dose: 25.0 mg/kg/injection, schedule: Q01DX009 (ip), vehicle: saline with Tween-80
[15] = dose: 50.0 mg/kg/injection, schedule: Q01DX009 (ip), vehicle: saline with Tween-80
[16] = dose: 100.0 mg/kg/injection, schedule: Q01DX009 (ip), vehicle: saline with Tween-80
[17] = dose: 50.0 mg/kg/injection, schedule: Q01DX009 (ip), vehicle: saline
[18] = dose: 100.0 mg/kg/injection, schedule: Q01DX009 (ip), vehicle: saline
[19] = dose: 200.0 mg/kg/injection, schedule: Q01DX009 (ip), vehicle: saline
[20] = dose: 200.0 mg/kg/injection, schedule: Q01DX009 (ip), vehicle: saline with Tween-80
[21] = dose: 100.0 mg/kg/injection, schedule: Q01DX001 (ip), vehicle: saline with Tween-80

`Nc1ccccc1-n1nc2ccc3ccccc3c2n1` was tested, and the T/C [1] was 100 % of control, the T/C [2] was 95 % of control and the T/C (dose: 400.0 mg/kg/injection, schedule: Q04DX003 (ip), vehicle: saline with Tween-80) was 95 % of control.

With `CCc1ccc(N=Cc2ccc(OC(=O)c3ccc(OC)cc3)c(OC)c2)cc1` the T/C [3] was 96 % of control, the T/C [4] was 94 % of control and the T/C [5] was 92 % of control.

For `CC1(C)C2=CCC[C@H]2[C@H]2[C@@H](OC(=O)/C=C/c3ccccc3)CC[C@H]21`, the T/C [6] was 100 % of control, the T/C [7] was 103 % of control and the T/C [8] was 103 % of control.

For `Cc1ccc(O)c(C(=NCCN=C(c2ccccc2)c2cc(C)ccc2O)c2ccccc2)c1`, the T/C [9] was 103 % of control and 106 % of control and 98 % of control, the T/C [10] was 100 % of control and 104 % of control and 118 % of control and the T/C [11] was 100 % of control and 101 % of control and 121 % of control. For the same compound, the T/C (dose: 400.0 mg/kg/injection, schedule: Q01DX005 (ip), vehicle: Klucel (hydroxypropylcellulose) (HPC)) was 96 % of control.

`O=C(O)C1(Cc2ccc(O)cc2)NCCS1` (stereo not drawn) was tested, and the T/C [12] was 104 % of control and the T/C [13] was 104 % of control.

`CC1(c2ccc(-c3ccccc3)cc2)NC(=O)NC1=O` (stereo not drawn) was tested, and the T/C [14] was 91 % of control, the T/C [15] was 86 % of control and the T/C [16] was 91 % of control.

For `Cl[Si](Cl)(Cl)CCc1ccccn1`, the T/C (dose: 25.0 mg/kg/injection, schedule: Q01DX009 (ip), vehicle: saline) was 99 % of control, the T/C [17] was 86 % of control and the T/C [18] was 95 % of control. The T/C [19] was 100 % of control.

`O=C(O)c1cc2ccccc2[nH]c1=O` was tested, and the T/C [9] was 97 % of control, the T/C [10] was 97 % of control and the T/C [11] was 104 % of control.

With `O=C1C=CC(=O)N1c1ccc(Br)cc1Cl` the T/C (dose: 1.0 mg/kg/injection, schedule: Q01DX009 (ip), vehicle: saline) was 104 % of control, the T/C (dose: 1.8 mg/kg/injection, schedule: Q04DX003 (ip), vehicle: saline) was 113 % of control and the T/C (dose: 2.0 mg/kg/injection, schedule: Q01DX009 (ip), vehicle: saline) was 109 % of control. For the same compound, the T/C (dose: 2.6 mg/kg/injection, schedule: Q04DX003 (ip), vehicle: saline) was 109 % of control, the T/C (dose: 4.0 mg/kg/injection, schedule: Q01DX009 (ip), vehicle: saline) was 113 % of control and the T/C (dose: 4.0 mg/kg/injection, schedule: Q04DX003 (ip), vehicle: saline) was 113 % of control. For the same compound, the T/C (dose: 6.0 mg/kg/injection, schedule: Q04DX003 (ip), vehicle: saline) was 118 % of control.

In the case of `O=C/C=C/c1cccc([N+](=O)[O-])c1`, the T/C [15] is reported as 113 % of control, the T/C [16] is reported as 113 % of control and the T/C [20] is reported as 104 % of control.

For `N#CC(C#N)=C1Sc2nc3ccc([N+](=O)[O-])cc3nc2S1`, the T/C [17] was 109 % of control, the T/C [18] was 90 % of control and the T/C [19] was 118 % of control.

For `Cc1ccn(C)c(=N)c1`, the T/C [15] was 118 % of control, the T/C [16] was 100 % of control and the T/C [20] was 104 % of control.

For `ClC1=C(Cl)C2(Cl)C3C4CC(C5OC45)C3N1C2(Cl)Cl` (stereo not drawn), the T/C [21] was 109 % of control and the T/C (dose: 200.0 mg/kg/injection, schedule: Q01DX001 (ip), vehicle: saline with Tween-80) was 103 % of control.

For `CC1C(=O)OC2C1CCC1(C)C=C(Cl)C(=O)C(C)(Cl)C21O` (stereo not drawn), the T/C (dose: 50.0 mg/kg/injection, schedule: Q04DX002 (ip), vehicle: saline with Tween-80) was 111 % of control, the T/C (dose: 100.0 mg/kg/injection, schedule: Q04DX002 (ip), vehicle: saline with Tween-80) was 107 % of control and the T/C (dose: 200.0 mg/kg/injection, schedule: Q04DX002 (ip), vehicle: saline with Tween-80) was 100 % of control.

For `O=C1C=C(O)CC2(CCCCC2)C1`, the T/C [9] was 102 % of control, the T/C [10] was 100 % of control and 96 % of control and the T/C [11] was 104 % of control and 105 % of control.

`C/C(=C\c1ccc(OCC(=O)O)c2ccccc12)[N+](=O)[O-]` was tested, and the T/C (dose: 25.0 mg/kg/injection, schedule: Q01DX001 (ip), vehicle: saline with Tween-80) was 110 % of control, the T/C (dose: 50.0 mg/kg/injection, schedule: Q01DX001 (ip), vehicle: saline with Tween-80) was 111 % of control and the T/C [21] was 101 % of control.

`C[C-]=O.C[C-]=O.[C-]#[O+].[C-]#[O+].[C-]#[O+].[C-]#[O+].[Re]` was tested, and the T/C (dose: 12.5 mg/kg/injection, schedule: Q01DX005 (ip), vehicle: Klucel (hydroxypropylcellulose) (HPC)) was 101 % of control, the T/C (dose: 25.0 mg/kg/injection, schedule: Q01DX005 (ip), vehicle: Klucel (hydroxypropylcellulose) (HPC)) was 96 % of control and the T/C [9] was 93 % of control.

With `COC(=O)c1ccc(C)cc1C(=O)OC` the T/C (dose: 50.0 mg/kg/injection, schedule: Q04DX003 (ip), vehicle: saline with Tween-80) was 100 % of control, the T/C [1] was 100 % of control and the T/C [2] was 104 % of control.

For `O=S(=O)(n1ccnc1)C(F)(F)F`, the T/C (dose: 12.5 mg/kg/injection, schedule: Q01DX001 (ip), vehicle: saline) was 101 % of control, the T/C (dose: 25.0 mg/kg/injection, schedule: Q01DX001 (ip), vehicle: saline) was 96 % of control and the T/C (dose: 50.0 mg/kg/injection, schedule: Q01DX001 (ip), vehicle: saline) was 96 % of control.

`O=C1OC(Cl)C=C1c1ccccc1` (stereo not drawn) was tested, and the T/C (dose: 50.0 mg/kg/injection, schedule: Q01DX009 (ip), vehicle: suspension in saline) was 95 % of control, the T/C (dose: 100.0 mg/kg/injection, schedule: Q01DX009 (ip), vehicle: suspension in saline) was 101 % of control and the T/C (dose: 200.0 mg/kg/injection, schedule: Q01DX009 (ip), vehicle: suspension in saline) was 101 % of control.

In the case of `O=C1C2=C(SCCS2)C(=O)N1c1cccc2ccccc12`, the T/C [17] is reported as 97 % of control, the T/C [18] is reported as 97 % of control and the T/C [19] is reported as 100 % of control.

With `C[C@@H]1CN(c2ccccc2)C[C@@H](C)OS(=O)O1` the T/C [12] was 104 % of control, the T/C [13] was 97 % of control and the T/C (dose: 400.0 mg/kg/injection, schedule: Q04DX002 (ip), vehicle: Klucel (hydroxypropylcellulose) (HPC)) was 100 % of control.

For `CNC(=O)C1CCC(=O)N1Cc1c[nH]c2ccccc12` (stereo not drawn), the T/C [3] was 94 % of control, the T/C [4] was 94 % of control and the T/C [5] was 92 % of control.

For `NC(=O)c1c(-c2ccccc2)nc2n1CCS2`, the T/C [6] was 106 % of control, the T/C [7] was 109 % of control and the T/C [8] was 107 % of control.

For `CN1CCN(c2ccc3nc(-c4ccc5nc(-c6ccc(O)cc6)[nH]c5c4)[nH]c3c2)CC1`, the T/C [17] was 153 % of control.

`OC1(c2cccnc2)C=CCC1` (stereo not drawn) was tested, and the T/C [15] was 100 % of control, the T/C [16] was 102 % of control and the T/C [20] was 100 % of control.

In the case of `CC1CCCC(C)N1C(=O)OCC12COC3(C)CCC(C)(OC1)N23` (stereo not drawn), the T/C (dose: 25.0 mg/kg/injection, schedule: Q01DX005 (ip), vehicle: saline) is reported as 100 % of control, the T/C [9] is reported as 95 % of control and the T/C (dose: 50.0 mg/kg/injection, schedule: Q01DX005 (ip), vehicle: saline) is reported as 99 % of control and 100 % of control. For the same compound, the T/C [10] was 109 % of control, the T/C (dose: 100.0 mg/kg/injection, schedule: Q01DX005 (ip), vehicle: saline) was 104 % of control and 108 % of control and the T/C [11] was 109 % of control. For the same compound, the T/C (dose: 200.0 mg/kg/injection, schedule: Q01DX005 (ip), vehicle: saline) was 122 % of control and 96 % of control.

In the case of `COc1ccc(C(C)c2cc3c(cc2OC(C)=O)OCO3)cc1` (stereo not drawn), the T/C (dose: 50.0 mg/kg/injection, schedule: Q01DX005 (ip), vehicle: saline with Tween-80) is reported as 100 % of control, the T/C (dose: 100.0 mg/kg/injection, schedule: Q01DX005 (ip), vehicle: saline with Tween-80) is reported as 87 % of control and the T/C (dose: 200.0 mg/kg/injection, schedule: Q01DX005 (ip), vehicle: saline with Tween-80) is reported as 93 % of control.

In the case of `Cc1c(C)c(C)c2c(c1C)C(=O)c1c3c(c4c(c1C2=O)CCCC4)CCCC3`, the T/C [14] is reported as 108 % of control, the T/C [15] is reported as 103 % of control and the T/C [16] is reported as 99 % of control.

In the case of `COC(=O)C(S)(NC(C)=O)C(C)C` (stereo not drawn), the T/C [17] is reported as 102 % of control, the T/C [18] is reported as 98 % of control and the T/C [19] is reported as 104 % of control.

In the case of `COc1cccc2c1C(=O)c1c(O)c(C(CC(=O)O)OC3CC(N)C(O)C(C)O3)c(CO)c(O)c1C2=O` (stereo not drawn), the T/C (dose: 100.0 mg/kg/injection, schedule: Q04DX003 (ip), vehicle: water) is reported as 106 % of control and the T/C (dose: 200.0 mg/kg/injection, schedule: Q04DX003 (ip), vehicle: water) is reported as 110 % of control.
